Measured values taken from US9233964B2, “Sulfamide piperazine derivatives as protein tyrosine kinase inhibitors and pharmaceutical use therof” (LEO PHARMA A/S, priority 2011, dated 2016).

Key:
Format in all cases: biochemical
JAK3 = molecular target: T1, JAK3 (Homo sapiens, UniProt P52333); assay: JAK kinase assay (HTRF, phosphorylation of synthetic peptide), JAK3; details: catalytic domain, ATP at Km (2 μM); read-out: JAK3 kinase inhibitory activity (EC50)
T1 construct: All four purified enzymes contain only the catalytic domain; His (N); purchased Carna Biosciences, Inc; host or cells: baculovirus expression system
T1 sequence (P52333 822-1111 limits assumed): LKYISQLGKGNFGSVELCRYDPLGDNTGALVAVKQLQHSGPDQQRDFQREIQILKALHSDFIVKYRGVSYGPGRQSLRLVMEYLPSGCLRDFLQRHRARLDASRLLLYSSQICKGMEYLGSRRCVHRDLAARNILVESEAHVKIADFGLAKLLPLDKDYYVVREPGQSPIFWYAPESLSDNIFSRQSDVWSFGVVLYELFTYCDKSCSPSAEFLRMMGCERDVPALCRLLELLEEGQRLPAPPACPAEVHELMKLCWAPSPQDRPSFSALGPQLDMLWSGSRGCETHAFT

JAK1 = molecular target: T2, JAK1 (Homo sapiens, UniProt P23458); assay: JAK kinase assay (HTRF, phosphorylation of synthetic peptide), JAK1; details: catalytic domain, ATP at Km (7 μM); read-out: JAK1 kinase inhibitory activity (EC50)
T2 construct: JAK1 (aa 850-1154) and TYK2 (aa 871-1187) are expressed with an N-terminally fused GST-tag; GST (N); purchased Carna Biosciences, Inc; host or cells: baculovirus expression system
T2 sequence (P23458 850-1154): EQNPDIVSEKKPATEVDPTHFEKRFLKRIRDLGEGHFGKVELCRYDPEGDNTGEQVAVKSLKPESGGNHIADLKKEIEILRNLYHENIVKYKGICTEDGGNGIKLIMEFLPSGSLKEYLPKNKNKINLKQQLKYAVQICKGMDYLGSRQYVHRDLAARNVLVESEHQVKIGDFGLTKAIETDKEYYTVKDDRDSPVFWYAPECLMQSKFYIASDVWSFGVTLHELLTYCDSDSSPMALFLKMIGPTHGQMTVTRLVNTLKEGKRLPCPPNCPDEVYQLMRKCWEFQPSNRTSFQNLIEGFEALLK
Summary of the method: (§1)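 Catalytic-domain human JAK1 (GST-tagged, aa 850-1154) or His-tagged JAK2, baculovirus-expressed, phosphorylated 1 µM biotinylated TK peptide at Km ATP (JAK1 7 µM, 10 mM MgCl2, 50 nM SEB; JAK2 4 µM, 5 mM MgCl2) in pH 7.0 Hepes, 20-30 min RT. EDTA stop; overnight streptavidin-XL665/cryptate HTRF read.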

TYK2 = molecular target: T3, TYK2 (Homo sapiens, UniProt P29597); assay: JAK kinase assay (HTRF, phosphorylation of synthetic peptide), TYK2; details: catalytic domain, ATP at Km (13 μM); read-out: TYK2 kinase inhibitory activity (EC50)
T3 construct: JAK1 (aa 850-1154) and TYK2 (aa 871-1187) are expressed with an N-terminally fused GST-tag; GST (N); purchased Carna Biosciences, Inc; host or cells: baculovirus expression system
T3 sequence (P29597 871-1187): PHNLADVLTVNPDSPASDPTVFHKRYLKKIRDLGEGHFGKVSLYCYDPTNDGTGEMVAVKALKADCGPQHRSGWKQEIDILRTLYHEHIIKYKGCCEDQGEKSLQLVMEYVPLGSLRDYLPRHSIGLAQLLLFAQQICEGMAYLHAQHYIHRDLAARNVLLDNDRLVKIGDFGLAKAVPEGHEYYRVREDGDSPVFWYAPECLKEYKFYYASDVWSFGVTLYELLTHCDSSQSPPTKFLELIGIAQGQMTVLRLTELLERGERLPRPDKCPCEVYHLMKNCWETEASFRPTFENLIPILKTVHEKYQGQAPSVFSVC
Summary of the method: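 1 µM biotinylated TK peptide at Km ATP in pH 7.0 Hepes, 20-30 min RT. EDTA stop; overnight streptavidin-XL665/cryptate HTRF read.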

JAK2 = molecular target: T4, JAK2 (Homo sapiens, UniProt O60674); assay: JAK kinase assay (HTRF, phosphorylation of synthetic peptide), JAK2; details: catalytic domain, ATP at Km (4 μM); read-out: JAK2 kinase inhibitory activity (EC50)
T4 construct: All four purified enzymes contain only the catalytic domain; His (N); purchased Carna Biosciences, Inc; host or cells: baculovirus expression system
T4 sequence (O60674 849-1124 limits assumed): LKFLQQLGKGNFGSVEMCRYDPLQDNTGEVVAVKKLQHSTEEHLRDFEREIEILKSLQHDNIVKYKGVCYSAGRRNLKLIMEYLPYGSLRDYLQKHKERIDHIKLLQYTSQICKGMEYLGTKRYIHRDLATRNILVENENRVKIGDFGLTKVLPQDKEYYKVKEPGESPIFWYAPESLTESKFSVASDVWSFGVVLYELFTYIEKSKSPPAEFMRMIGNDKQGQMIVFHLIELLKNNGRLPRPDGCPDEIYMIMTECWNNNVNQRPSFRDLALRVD
Summary of the method: as §1

SMILES: COc1ccc(CNS(=O)(=O)N2CCN(c3ncnc4[nH]ccc34)CC23CC3)cc1 [Example 195, N-[(4-methoxyphenyl)methyl]-5-(7H-pyrrolo[2,3-d]pyrimidin-4-yl)-5,8-diazaspiro[2.5]octane-8-sulfonamide]
- EC50 (JAK3): > 500 nM
- EC50 (JAK1): 100 to 500 nM
- EC50 (TYK2): > 500 nM
- EC50 (JAK2): 100 to 500 nM

SMILES: CC(C)(C)OC(=O)N(CCCS(C)(=O)=O)S(=O)(=O)N1CCN(c2ncnc3[nH]ccc23)CC12CC2 [Example 196, tert-butyl N-(3-methylsulfonylpropyl)-N-[[5-(7H-pyrrolo[2,3-d]pyrimidin-4-yl)-5,8-diazaspiro[2.5]octan-8-yl]sulfonyl]carbamate]
- EC50 (JAK3): > 500 nM
- EC50 (JAK1): 100 to 500 nM
- EC50 (TYK2): > 500 nM
- EC50 (JAK2): 100 to 500 nM

SMILES: NS(=O)(=O)N1CCN(c2ncnc3[nH]ccc23)CC12CC2 [Int 1]
- EC50 (JAK3): < 100 nM
- EC50 (JAK1): < 100 nM
- EC50 (TYK2): 100 to 500 nM
- EC50 (JAK2): < 100 nM

SMILES: CNS(=O)(=O)N1CCN(c2ncnc3[nH]ccc23)CC12CC2 [Int 3]
- EC50 (JAK3): < 100 nM
- EC50 (JAK1): < 100 nM
- EC50 (TYK2): 100 to 500 nM
- EC50 (JAK2): < 100 nM

SMILES: O=S(=O)(NCCc1ccccc1)N1CCN(c2ncnc3[nH]ccc23)CC12CC2 [Int 5]
- EC50 (JAK3): 100 to 500 nM
- EC50 (JAK1): < 100 nM
- EC50 (TYK2): > 500 nM
- EC50 (JAK2): < 100 nM

SMILES: O=S(=O)(N1CCN(c2ncnc3[nH]ccc23)CC12CC2)n1ccnc1 [Int 15]
- EC50 (JAK3): > 500 nM
- EC50 (JAK1): 100 to 500 nM
- EC50 (TYK2): > 500 nM
- EC50 (JAK2): < 100 nM

SMILES: CN(CC1CCNC1)S(=O)(=O)N1CCN(c2ncnc3[nH]ccc23)CC12CC2 (stereo not drawn) [Int 25]
- EC50 (JAK3): 100 to 500 nM
- EC50 (JAK1): < 100 nM
- EC50 (TYK2): > 500 nM
- EC50 (JAK2): < 100 nM

SMILES: CN(CC1CCNCC1)S(=O)(=O)N1CCN(c2ncnc3[nH]ccc23)CC12CC2 [Int 26]
- EC50 (JAK3): 100 to 500 nM
- EC50 (JAK1): < 100 nM
- EC50 (TYK2): > 500 nM
- EC50 (JAK2): < 100 nM

SMILES: CN(CC1CCCNC1)S(=O)(=O)N1CCN(c2ncnc3[nH]ccc23)CC12CC2 (stereo not drawn) [Int 27]
- EC50 (JAK3): > 500 nM
- EC50 (JAK1): 100 to 500 nM
- EC50 (TYK2): > 500 nM
- EC50 (JAK2): 100 to 500 nM

SMILES: CN(CC1CC(F)(F)CN1)S(=O)(=O)N1CCN(c2ncnc3[nH]ccc23)CC12CC2 (stereo not drawn) [Int 28]
- EC50 (JAK3): < 100 nM
- EC50 (JAK1): < 100 nM
- EC50 (TYK2): < 100 nM
- EC50 (JAK2): < 100 nM

SMILES: O=S(=O)(NC1CCC1)N1CCN(c2ncnc3[nH]ccc23)CC12CC2 [Int 30]
- EC50 (JAK3): 100 to 500 nM
- EC50 (JAK1): < 100 nM
- EC50 (TYK2): > 500 nM
- EC50 (JAK2): < 100 nM

SMILES: O=S1(=O)CCC(CNS(=O)(=O)N2CCN(c3ncnc4[nH]ccc34)CC23CC3)C1 (stereo not drawn) [Int 37]
- EC50 (JAK3): < 100 nM
- EC50 (JAK1): < 100 nM
- EC50 (TYK2): > 500 nM
- EC50 (JAK2): < 100 nM

SMILES: O=S1(=O)CCC(CNS(=O)(=O)N2CCN(c3ncnc4[nH]ccc34)CC23CC3)CC1 [Int 38]
- EC50 (JAK3): < 100 nM
- EC50 (JAK1): < 100 nM
- EC50 (TYK2): > 500 nM
- EC50 (JAK2): < 100 nM

SMILES: N#CCCNS(=O)(=O)N1CCN(c2ncnc3[nH]ccc23)CC12CC2 [Int 40]
- EC50 (JAK3): < 100 nM
- EC50 (JAK1): < 100 nM
- EC50 (TYK2): > 500 nM
- EC50 (JAK2): < 100 nM

SMILES: O=S(=O)(NC1COC1)N1CCN(c2ncnc3[nH]ccc23)CC12CC2 [Int 41]
- EC50 (JAK3): < 100 nM
- EC50 (JAK1): < 100 nM
- EC50 (TYK2): 100 to 500 nM
- EC50 (JAK2): < 100 nM

SMILES: O=S(=O)(NOCc1ccccc1)N1CCN(c2ncnc3[nH]ccc23)CC12CC2 [Int 46]
- EC50 (JAK3): 100 to 500 nM
- EC50 (JAK1): < 100 nM
- EC50 (TYK2): 100 to 500 nM
- EC50 (JAK2): < 100 nM

SMILES: COc1ccc(/C=N\S(=O)(=O)N2CCN(c3ncnc4[nH]ccc34)CC23CC3)cc1 [Int 49]
- EC50 (JAK3): < 100 nM
- EC50 (JAK1): < 100 nM
- EC50 (TYK2): 100 to 500 nM
- EC50 (JAK2): < 100 nM

SMILES: CN(C1CNC1)S(=O)(=O)N1CCN(c2ncnc3[nH]ccc23)CC12CC2 [Int 50]
- EC50 (JAK3): 100 to 500 nM
- EC50 (JAK1): < 100 nM
- EC50 (TYK2): > 500 nM
- EC50 (JAK2): < 100 nM

SMILES: CN(C[C@H]1CCCN1)S(=O)(=O)N1CCN(c2ncnc3[nH]ccc23)CC12CC2 [Int 51]
- EC50 (JAK3): > 500 nM
- EC50 (JAK1): 100 to 500 nM
- EC50 (TYK2): > 500 nM
- EC50 (JAK2): 100 to 500 nM

SMILES: CN(C[C@@H]1CCCN1)S(=O)(=O)N1CCN(c2ncnc3[nH]ccc23)CC12CC2 [Int 52]
- EC50 (JAK3): 100 to 500 nM
- EC50 (JAK1): < 100 nM
- EC50 (TYK2): > 500 nM
- EC50 (JAK2): < 100 nM

SMILES: CC(C)(C)OC(=O)NS(=O)(=O)N1CCN(c2ncnc3[nH]ccc23)CC12CC2 [Int 53]
- EC50 (JAK3): < 100 nM
- EC50 (JAK1): < 100 nM
- EC50 (TYK2): > 500 nM
- EC50 (JAK2): < 100 nM
